Test results published in US9790215B2 (FLATLEY DISCOVERY LAB, LLC, priority 2013, dated 2017).

Target: T1, human ΔF508-CFTR (Homo sapiens, UniProt P13569, DEL508-508)
T1 construct: expressed in transfected cells
Assay: CFTR-YFP High Throughput Assay (YFP halide flux in FRT cells)
Format: cell-based
Details: FRT cells expressing human ΔF508-CFTR and YFP; forskolin stimulated
Description: Assays for Detecting and Measuring the Effect of Compounds on dF508-CFTR Channels CFRT-YFP High Throughput Assay:
The following protocol is designed to selectively screen small molecule compounds for F508del CFTR corrector activities in the HTS YFP flux assay. In this protocol, the cells are incubated with testing compounds for 24 hours, washed with PBS, stimulated with forskolin and a standard potentiator, and read on a 384-well HTS plate reader, such as the Hamamatsu FDDD-6000.
(§1) YFP fluorescence intensity is acquired at high speed before and after iodide buffer is injected to the assay cells. Iodide enters the cells via active CFTR channels in the plasma membrane, and quenches the YFP fluorescence. The rate of fluorescence quenching is proportionally related to the total CFTR activities in the cell membrane. dF508-CFTR corrector accelerates YFP quenching by increasing the number of CFTR molecules in the testing cell plasma membrane.
This method was initially developed for bench top plate readers (Galietta et al., 2001), and was adapted to the HTS format (Sui et al. Assay Drug Dev. Technol. 2010).
Fisher Rat Thyroid (FRT) cells stably expressing both human AF508-CFTR and a halide-sensitive yellow fluorescent protein (YFP—H148Q/1152L 25, 22) (Galietta et al., Am. J. Physiol Cell Physiol 281(5), C1734, 2001) were cultured on plastic surface in Coon's modified Ham's F12 medium supplemented with FBS 10%, L-glutamine 2 mM, penicillin 100 U/mL, and streptomycin 100 μg/mL. G418 (0.75-1.0 mg/mL) and zeocin (3.2 ug/mL) were used for selection of FRT cells expressing ΔF508-CFTR and YFP. For primary screening, FRT cells were plated into 384-well black wall, transparent bottom microtiter plates (Costar; Corning Inc.) at a cell density of 20,000-40,000 per well. Test compound was applied to the cells at varying concentrations ranging from […] in either a 2-fold or 3-fold dilution series. Cells were incubated in a cell culture incubator at 37° C. with 5% CO2 for 24-26 h. Assay plates were washed with DPBS media (Thermo, cat# SH30028.02) to remove unbound cells and compound. Stimulation media (25 μL) containing 20 μM Forskolin & 30 μM P3 [6-(Ethyl-phenyl-sulfonyl)-4-oxo-1,4-dihydro-quinoline-3-carboxylic acid 2-methoxy-benzylamide] in Hams F-12 coon's modified media was added to the plate wells and incubated at room temperature for 60-120 min. 25 μL of HEPES-PBS-I buffer (10 mM HEPES, 1 mM MgCl2, 3 mM KCl, 1 mM CaCl2, 150 mM NaI) was then added and fluorescence quench curves (Excitation 500 nm/Emission 540 nm; exposure 136 ms) were immediately recorded on an FDSS-6000 plate reader (Hamamatsu). Quench rates were derived from least squares fitting of the data as described by Sui et al., (2010).
The following protocol is designed to selectively screen small molecule compounds for F508del CFTR potentiator activities in the HTS YFP flux assay. In this protocol, the cells are incubated at 27 C for 24 hours with homogeneously boosted dF508-CFTR expression in the cell membrane by the low temperature, washed with PBS, stimulated with forskolin, and read on a 384-well HTS plate reader, such as the Hamamatsu FDDD-6000.
as §1, with “dF508del-CFTR potentiators accelerate” for “dF508-CFTR corrector accelerates”, “increasing” for “increasing the number of”, “activities” for “molecules”
Fisher Rat Thyroid (FRT) cells stably expressing both human ΔF508-CFTR and a halide-sensitive yellow fluorescent protein (YFP-H148Q/I152L 25, 22) (Galietta et al., Am. J. Physiol Cell Physiol 281(5), C1734, 2001) were cultured on plastic surface in Coon's modified Ham's F12 medium supplemented with FBS 10%, L-glutamine 2 mM, penicillin 100 U/mL, and streptomycin 100 μg/mL. […]

T1 sequence (P13569 with tags, fused parts or gaps DEL508-508): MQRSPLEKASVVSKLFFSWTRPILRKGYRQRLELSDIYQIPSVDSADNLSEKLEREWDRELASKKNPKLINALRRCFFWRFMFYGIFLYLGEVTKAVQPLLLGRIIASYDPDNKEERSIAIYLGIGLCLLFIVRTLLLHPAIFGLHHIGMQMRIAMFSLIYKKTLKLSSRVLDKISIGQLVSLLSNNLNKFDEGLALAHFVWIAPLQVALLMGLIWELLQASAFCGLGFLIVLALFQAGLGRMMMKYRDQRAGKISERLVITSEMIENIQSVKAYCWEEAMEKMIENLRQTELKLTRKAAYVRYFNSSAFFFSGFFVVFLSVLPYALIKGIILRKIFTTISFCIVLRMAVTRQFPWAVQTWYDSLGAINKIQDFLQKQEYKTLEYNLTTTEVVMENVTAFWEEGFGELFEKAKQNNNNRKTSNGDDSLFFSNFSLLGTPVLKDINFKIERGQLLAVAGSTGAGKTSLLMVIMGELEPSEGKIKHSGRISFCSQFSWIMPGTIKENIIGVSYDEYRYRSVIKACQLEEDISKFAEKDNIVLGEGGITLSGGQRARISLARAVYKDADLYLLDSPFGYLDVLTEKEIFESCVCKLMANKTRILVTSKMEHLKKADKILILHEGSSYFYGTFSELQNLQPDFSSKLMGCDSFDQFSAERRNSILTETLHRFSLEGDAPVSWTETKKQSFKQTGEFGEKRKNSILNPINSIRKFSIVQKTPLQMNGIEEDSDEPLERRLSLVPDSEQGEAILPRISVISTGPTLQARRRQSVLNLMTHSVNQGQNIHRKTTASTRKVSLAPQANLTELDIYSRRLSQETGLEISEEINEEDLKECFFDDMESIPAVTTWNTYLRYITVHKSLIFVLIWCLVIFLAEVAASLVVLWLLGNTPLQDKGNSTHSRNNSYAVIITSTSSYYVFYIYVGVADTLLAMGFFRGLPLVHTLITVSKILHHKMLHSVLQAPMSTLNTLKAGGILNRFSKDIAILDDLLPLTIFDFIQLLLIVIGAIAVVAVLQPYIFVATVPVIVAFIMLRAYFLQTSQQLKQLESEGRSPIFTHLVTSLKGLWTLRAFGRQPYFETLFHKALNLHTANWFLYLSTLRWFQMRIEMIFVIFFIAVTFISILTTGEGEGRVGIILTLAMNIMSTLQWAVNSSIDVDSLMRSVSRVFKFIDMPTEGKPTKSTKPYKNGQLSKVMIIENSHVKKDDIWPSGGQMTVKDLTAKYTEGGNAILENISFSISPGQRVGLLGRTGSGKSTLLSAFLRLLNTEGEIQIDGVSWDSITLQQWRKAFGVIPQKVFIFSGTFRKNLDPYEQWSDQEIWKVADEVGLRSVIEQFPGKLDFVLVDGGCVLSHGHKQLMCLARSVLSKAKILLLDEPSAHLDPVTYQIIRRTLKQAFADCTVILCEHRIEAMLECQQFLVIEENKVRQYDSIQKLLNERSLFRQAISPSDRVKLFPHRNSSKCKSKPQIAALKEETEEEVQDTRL

| SMILES | EC50 |
| --- | --- |
| CCN(C(=O)Cn1nc(Cc2cccnc2)c2c(OC3CCCCC3)cccc2c1=O)c1ccc2c(c1)OC(F)(F)O2 [Example 60, 2-(5-(cyclohexyloxy)-1-oxo-4-(pyridin-3-ylmethyl)phthalazin-2(1H)-yl)-N-(2,2-difluorobenzo[d][1,3]dioxol-5-yl)-N-ethylacetamide] | < 10 µM |
| CCN(C(=O)Cn1nc(Cc2cccnc2)c2cccc(OCCOC)c2c1=O)c1ccc2c(c1)OC(F)(F)O2 [Example 61, N-(2,2-difluorobenzo[d][1,3]dioxol-5-yl)-N-ethyl-2-(8-(2-methoxyethoxy)-1-oxo-4-(pyridin-3-ylmethyl)phthalazin-2(1H)-yl)acetamide] | < 10 µM |
| CCN(C(=O)Cn1nc(Cc2cccnc2)c2c(OCCOC)cccc2c1=O)c1ccc2c(c1)OC(F)(F)O2 [Example 62, N-(2,2-difluorobenzo[d][1,3]dioxol-5-yl)-N-ethyl-2-(5-(2-methoxyethoxy)-1-oxo-4-(pyridin-3-ylmethyl)phthalazin-2(1H)-yl)acetamide] | < 10 µM |
| COc1ccc2c(-c3cccc(C#N)c3)nn(CC(=O)N(C)c3ccc4c(c3)OC(F)(F)O4)c(=O)c2c1 [Example 63, 2-(4-(3-cyanophenyl)-7-methoxy-1-oxophthalazin-2(1H)-yl)-N-(2,2-difluorobenzo[d][1,3]dioxol-5-yl)-N-methylacetamide] | < 10 µM |
| COc1ccc2c(-c3ccc(S(N)(=O)=O)cc3)nn(CC(=O)N(C)c3ccc4c(c3)OC(F)(F)O4)c(=O)c2c1 [Example 64, N-(2,2-difluorobenzo[d][1,3]dioxol-5-yl)-2-(7-methoxy-1-oxo-4-(4-sulfamoylphenyl)phthalazin-2(1H)-yl)-N-methylacetamide] | < 10 µM |
| CCN(C(=O)Cn1nc(-c2ccc(S(N)(=O)=O)cc2)c2ccc(OC)cc2c1=O)c1ccc2c(c1)OC(F)(F)O2 [Example 65, N-(2,2-difluorobenzo[d][1,3]dioxol-5-yl)-N-ethyl-2-(7-methoxy-1-oxo-4-(4-sulfamoylphenyl)phthalazin-2(1H)-yl)acetamide] | < 10 µM |
| CCN(C(=O)Cn1nc(-c2ccc(S(N)(=O)=O)cc2)c2ccc(OC)cc2c1=O)c1ccc(OC(F)F)cc1 [Example 66, N-(4-(difluoromethoxy)phenyl)-N-ethyl-2-(7-methoxy-1-oxo-4-(4-sulfamoylphenyl)phthalazin-2(1H)-yl)acetamide] | > 20 µM |
| CCN(C(=O)Cn1nc(-c2cccc(C#N)c2)c2ccc(OC)cc2c1=O)c1ccc(OC(F)F)cc1 [Example 67, 2-(4-(3-cyanophenyl)-7-methoxy-1-oxophthalazin-2(1H)-yl)-N-(4-(difluoromethoxy)phenyl)-N-ethylacetamide] | < 10 µM |
| COc1ccc2c(-c3ccc(S(N)(=O)=O)cc3)nn(CC(=O)N(c3ccc4c(c3)OC(F)(F)O4)C(C)C)c(=O)c2c1 [Example 69, N-(2,2-difluorobenzo[d][1,3]dioxol-5-yl)-N-isopropyl-2-(7-methoxy-1-oxo-4-(4-sulfamoyl-phenyl)phthalazin-2(1H)-yl)acetamide] | < 10 µM |
| COc1ccc2c(-c3cccc(C#N)c3)nn(CC(=O)N(c3ccc4c(c3)OC(F)(F)O4)C(C)C)c(=O)c2c1 [Example 70, 2-(4-(3-cyanophenyl)-7-methoxy-1-oxophthalazin-2(1H)-yl)-N-(2,2-difluorobenzo[d][1,3]dioxol-5-yl)-N-isopropylacetamide] | < 10 µM |
| COc1ccc2c(-c3ccc(S(N)(=O)=O)cc3)nn(CC(=O)N(c3ccc4c(c3)OC(F)(F)O4)C3CC3)c(=O)c2c1 [Example 71, N-cyclopropyl-N-(2,2-difluorobenzo[d][1,3]dioxol-5-yl)-2-(7-methoxy-1-oxo-4-(4-sulfamoylphenyl)phthalazin-2(1H)-yl)acetamide] | < 10 µM |
| COc1ccc2c(-c3cccc(C#N)c3)nn(CC(=O)N(c3ccc4c(c3)OC(F)(F)O4)C3CC3)c(=O)c2c1 [Example 72, 2-(4-(3-cyanophenyl)-7-methoxy-1-oxophthalazin-2(1H)-yl)-N-cyclopropyl-N-(2,2-difluorobenzo[d][1,3]dioxol-5-yl)acetamide] | < 10 µM |
| CCN(C(=O)Cn1nc(-c2ccc(C(N)=O)cc2)c2ccc(OC)cc2c1=O)c1ccc2c(c1)OC(F)(F)O2 [Example 75, 4-(3-(2-((2,2-difluorobenzo[d][1,3]dioxol-5-yl)(ethyl)amino)-2-oxoethyl)-6-methoxy-4-oxo-3,4-dihydrophthalazin-1-yl)benzamide] | < 10 µM |
| COc1ccc2c(-c3ccc(C(N)=O)cc3)nn(CC(=O)N(C)c3ccc4c(c3)OC(F)(F)O4)c(=O)c2c1 [Example 76, 4-(3-(2-((2,2-difluorobenzo[d][1,3]dioxol-5-yl)(methyl)amino)-2-oxoethyl)-6-methoxy-4-oxo-3,4-dihydrophthalazin-1-yl)benzamide] | < 10 µM |
| CCN(C(=O)Cn1nc(-c2ccc(C(N)=O)cc2)c2ccc(OC)cc2c1=O)c1ccc2nc(C)oc2c1 [Example 77, 4-(3-(2-(ethyl(2-methylbenzo[d]oxazol-6-yl)amino)-2-oxoethyl)-6-methoxy-4-oxo-3,4-dihydrophthalazin-1-yl)benzamide] | < 10 µM |
| CCN(C(=O)Cn1nc(C(=O)Nc2ccccc2C#N)c2ccccc2c1=O)c1ccc2c(c1)OC(F)(F)O2 [Example 78, N-(2-cyanophenyl)-3-(2-((2,2-difluorobenzo[d][1,3]dioxol-5-yl)(ethyl)amino)-2-oxoethyl)-4-oxo-3,4-dihydrophthalazine-1-carboxamide] | 10 to 20 µM |
| CCN(C(=O)Cn1nc(C(=O)Nc2cc(Cl)ccc2C(=O)O)c2ccccc2c1=O)c1ccc2c(c1)OC(F)(F)O2 [Example 79, 4-chloro-2-(3-(2-((2,2-difluorobenzo[d][1,3]dioxol-5-yl)(ethyl)amino)-2-oxoethyl)-4-oxo-3,4-dihydrophthalazine-1-carboxamido)benzoic acid] | < 10 µM |
| CCN(C(=O)Cn1nc(C(=O)Nc2ccccn2)c2ccccc2c1=O)c1ccc2c(c1)OC(F)(F)O2 [Example 80, 3-(2-((2,2-difluorobenzo[d][1,3]dioxol-5-yl)(ethyl)amino)-2-oxoethyl)-4-oxo-N-(pyridin-2-yl)-3,4-dihydrophthalazine-1-carboxamide] | > 20 µM |
| CCN(C(=O)Cn1nc(C(=O)N(C)c2ccccn2)c2ccccc2c1=O)c1ccc2c(c1)OC(F)(F)O2 [Example 81, 3-(2-((2,2-difluorobenzo[d][1,3]dioxol-5-yl)(ethyl)amino)-2-oxoethyl)-N-methyl-4-oxo-N-(pyridin-2-yl)-3,4-dihydrophthalazine-1-carboxamide] | 10 to 20 µM |
| CCc1ccc(N(CC)C(=O)Cn2nc(C(=O)Nc3cc(Cl)ccc3C#N)c3ccccc3c2=O)cc1 [Example 82, N-(5-chloro-2-cyanophenyl)-3-(2-(ethyl(4-ethylphenyl)amino)-2-oxoethyl)-4-oxo-3,4-dihydrophthalazine-1-carboxamide] | < 10 µM |
| CCN(C(=O)Cn1nc(C(=O)N(CC)c2ccccc2C#N)c2ccccc2c1=O)c1ccc2c(c1)OC(F)(F)O2 [Example 83, N-(2-cyanophenyl)-3-(2-((2,2-difluoro-benzo[d][1,3]dioxol-5-yl)(ethyl)amino)-2-oxoethyl)-N-ethyl-4-oxo-3,4-dihydro-phthalazine-1-carboxamide] | < 10 µM |
| CCc1ccc(N(CC)C(=O)Cn2nc(C(=O)Nc3cc(Cl)ccc3C(=O)OC)c3ccccc3c2=O)cc1 [Example 84, methyl 4-chloro-2-(3-(2-(ethyl(4-ethylphenyl)amino)-2-oxoethyl)-4-oxo-3,4-dihydrophthalazine-1-carboxamido)benzoate] | < 10 µM |
